Activity calls are given as the source filed them. The calls are words filed in the database; no cut-off is given here.
Assays:
[1] = biological target: Serine/threonine-protein kinase B-raf (Mus musculus, UniProt P28028, V600E); test: Inhibition of full-length GST-tagged mouse BRAF V600E mutant using recombinant human full length N-terminal His-tagged MEK1 as substrate preincubated for 1 hr followed by substrate addition measured after 25 mins by Nu-page gel-based phosphor screen analysis
HT-29 = test: Antiproliferative activity against human HT-29 cells harboring BRAF V600E mutant after 24 hrs by MTT assay; type: functional, cell-based; conditions: HT-29, 24 h
A-375 [2] = test: Antiproliferative activity against human A375 cells harboring BRAF V600E mutant after 24 hrs by MTT assay; type: functional, cell-based; conditions: A-375, 24 h
[3] = Antiproliferative activity against human WM1361 cells harboring wild-type BRAF after 48 hrs by MTT assay; type: functional, cell-based; conditions: WM1361, 48 h
A-375 [4] = test: Induction of apoptosis in human A375 cells assessed as necrotic cells at 1 uM after 24 hrs by Annexin V-FITC/propidium iodide staining based flow cytometry (reference value: 0.635 to 3.12%); type: functional
A-375 [5] = test: Induction of apoptosis in human A375 cells assessed as late apoptotic cells at 1 uM after 24 hrs by Annexin V-FITC/propidium iodide staining based flow cytometry (reference value: 3.80 to 4.61%); type: functional
A-375 [6] = test: Induction of apoptosis in human A375 cells assessed as early apoptotic cells at 1 uM after 24 hrs by Annexin V-FITC/propidium iodide staining based flow cytometry (reference value: 1.22 to 1.64%); type: functional
A-375 [7] = test: Induction of apoptosis in human A375 cells assessed as necrotic cells at 3 uM after 24 hrs by Annexin V-FITC/propidium iodide staining based flow cytometry (reference value: 0.635 to 3.12%); type: functional
A-375 [8] = test: Induction of apoptosis in human A375 cells assessed as late apoptotic cells at 3 uM after 24 hrs by Annexin V-FITC/propidium iodide staining based flow cytometry (reference value: 3.80 to 4.61%); type: functional
A-375 [9] = test: Induction of apoptosis in human A375 cells assessed as early apoptotic cells at 3 uM after 24 hrs by Annexin V-FITC/propidium iodide staining based flow cytometry (reference value: 1.22 to 1.64%); type: functional
A-375 [10] = test: Induction of apoptosis in human A375 cells assessed as viable cells at 3 uM after 24 hrs by Annexin V-FITC/propidium iodide staining based flow cytometry (reference value: 90.6 to 94.3%); type: functional; conditions: A-375, 24 h, read-out: Activity
A-375 [11] = test: Induction of apoptosis in human A375 cells assessed as necrotic cells at 10 uM after 24 hrs by Annexin V-FITC/propidium iodide staining based flow cytometry (reference value: 0.635 to 3.12%); type: functional
A-375 [12] = test: Induction of apoptosis in human A375 cells assessed as late apoptotic cells at 10 uM after 24 hrs by Annexin V-FITC/propidium iodide staining based flow cytometry (reference value: 3.80 to 4.61%); type: functional
A-375 [13] = test: Induction of apoptosis in human A375 cells assessed as early apoptotic cells at 10 uM after 24 hrs by Annexin V-FITC/propidium iodide staining based flow cytometry (reference value: 1.22 to 1.64%); type: functional
A-375 [14] = test: Induction of apoptosis in human A375 cells assessed as viable cells at 10 uM after 24 hrs by Annexin V-FITC/propidium iodide staining based flow cytometry (reference value: 90.6 to 94.3%); type: functional; conditions: A-375, 24 h, read-out: Activity
A-375 [15] = test: Induction of apoptosis in human A375 cells assessed as necrotic cells at 3 uM after 12 hrs by Annexin V-FITC/propidium iodide staining based flow cytometry (reference value: 0.635 to 3.12%); type: functional
A-375 [16] = test: Induction of apoptosis in human A375 cells assessed as late apoptotic cells at 3 uM after 12 hrs by Annexin V-FITC/propidium iodide staining based flow cytometry (reference value: 3.80 to 4.61%); type: functional
A-375 [17] = test: Induction of apoptosis in human A375 cells assessed as early apoptotic cells at 3 uM after 36 hrs by Annexin V-FITC/propidium iodide staining based flow cytometry (reference value: 1.22 to 1.64%); type: functional
A-375 [18] = test: Induction of apoptosis in human A375 cells assessed as viable cells at 3 uM after 36 hrs by Annexin V-FITC/propidium iodide staining based flow cytometry (reference value: 90.6 to 94.3%); type: functional; conditions: A-375, 36 h, read-out: Activity
A-375 [19] = test: Cell cycle arrest in human A375 cells assessed as accumulation at G1 phase at 1 uM after 24 hrs by propidium iodide staining-based flow cytometry (reference value: 59.02 to 60.22%); type: functional
A-375 [20] = test: Cell cycle arrest in human A375 cells assessed as accumulation at S phase at 1 uM after 24 hrs by propidium iodide staining-based flow cytometry (reference value: 20.08 to 31.09%); type: functional
A-375 [21] = test: Cell cycle arrest in human A375 cells assessed as accumulation at S phase at 3 uM after 24 hrs by propidium iodide staining-based flow cytometry (reference value: 20.08 to 31.09%); type: functional
A-375 [22] = test: Cell cycle arrest in human A375 cells assessed as accumulation at G1 phase at 10 uM after 24 hrs by propidium iodide staining-based flow cytometry (reference value: 59.02 to 60.22%); type: functional
A-375 [23] = test: Cell cycle arrest in human A375 cells assessed as accumulation at S phase at 10 uM after 24 hrs by propidium iodide staining-based flow cytometry (reference value: 20.08 to 31.09%); type: functional
A-375 [24] = test: Cell cycle arrest in human A375 cells assessed as accumulation at G1 phase at 3 uM after 12 hrs by propidium iodide staining-based flow cytometry (reference value: 59.02 to 60.22%); type: functional
A-375 [25] = test: Cell cycle arrest in human A375 cells assessed as accumulation at S phase at 3 uM after 12 hrs by propidium iodide staining-based flow cytometry (reference value: 20.08 to 31.09%); type: functional
A-375 [26] = test: Cell cycle arrest in human A375 cells assessed as accumulation at G1 phase at 3 uM after 36 hrs by propidium iodide staining-based flow cytometry (reference value: 59.02 to 60.22%); type: functional
A-375 [27] = test: Cell cycle arrest in human A375 cells assessed as accumulation at S phase at 3 uM after 36 hrs by propidium iodide staining-based flow cytometry (reference value: 20.08 to 31.09%); type: functional
A-375 [28] = test: Cell cycle arrest in human A375 cells assessed as accumulation at G2/M phase at 3 uM after 36 hrs by propidium iodide staining-based flow cytometry (reference value: 7.91 to 21.07%); type: functional
A-375 [29] = test: Induction of apoptosis in human A375 cells assessed as reduction in mitochondrial membrane potential up to 8 uM after 12 hrs using JC-1 staining-based flow cytometry; type: functional, cell-based
A-375 [30] = test: Induction of apoptosis in human A375 cells after 24 hrs by Annexin V-FITC/propidium iodide staining based flow cytometry; type: functional, cell-based
A-375 [31] = test: Induction of apoptosis in human A375 cells at 3 uM by Annexin V-FITC/propidium iodide staining based flow cytometry; type: functional, cell-based; conditions: TDE = time-dependent effect
A-375 [32] = test: Cell cycle arrest in human A375 cells assessed as accumulation at G1 phase after 24 hrs by propidium iodide staining-based flow cytometry; type: functional

Serine/threonine-protein kinase B-raf, sequence (P28028 whole entry, looked up, stated change not applied): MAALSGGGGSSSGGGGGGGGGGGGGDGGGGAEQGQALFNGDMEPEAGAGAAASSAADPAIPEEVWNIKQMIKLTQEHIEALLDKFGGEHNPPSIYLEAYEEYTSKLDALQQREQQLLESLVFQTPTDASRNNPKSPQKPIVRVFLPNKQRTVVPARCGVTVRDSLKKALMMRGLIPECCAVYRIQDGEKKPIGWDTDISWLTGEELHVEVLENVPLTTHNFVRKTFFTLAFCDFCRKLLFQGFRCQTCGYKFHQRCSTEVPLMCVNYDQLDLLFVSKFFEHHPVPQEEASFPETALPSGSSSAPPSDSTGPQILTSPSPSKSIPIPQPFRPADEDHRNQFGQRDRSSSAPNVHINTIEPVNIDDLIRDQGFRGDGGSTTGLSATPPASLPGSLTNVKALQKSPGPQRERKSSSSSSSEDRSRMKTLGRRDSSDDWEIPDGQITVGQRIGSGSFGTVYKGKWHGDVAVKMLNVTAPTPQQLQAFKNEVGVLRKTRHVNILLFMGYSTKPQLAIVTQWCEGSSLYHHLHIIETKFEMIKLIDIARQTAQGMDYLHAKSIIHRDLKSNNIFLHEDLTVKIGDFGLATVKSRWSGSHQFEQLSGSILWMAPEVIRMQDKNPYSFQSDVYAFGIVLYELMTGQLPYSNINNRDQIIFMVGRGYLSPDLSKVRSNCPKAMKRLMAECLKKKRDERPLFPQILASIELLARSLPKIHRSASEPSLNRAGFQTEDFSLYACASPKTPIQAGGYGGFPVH

## COc1ccc(-n2cc(NC(=O)Cn3ccc(-c4cccc(Cl)c4)n3)cn2)cc1
[1]
  IC50: 100 nM
HT-29
  IC50: 2170 nM
A-375 [2]
  IC50: 960 nM
[3]
  IC50: 10200 nM
A-375 [4]
  Activity: 4.51%
A-375 [5]
  Activity: 14.1%
A-375 [6]
  Activity: 1.92%
A-375 [7]
  Activity: 2.89 - 4.99%
A-375 [8]
  Activity: 19.1 - 29.2%
A-375 [9]
  Activity: 3.01 - 3.25%
A-375 [10]
  viability at 3 µM: 64.7 to 72.9%
A-375 [11]
  Activity: 7.54%
A-375 [12]
  Activity: 37.5%
A-375 [13]
  Activity: 1.81%
A-375 [14]
  viability at 10 µM: 53.2%
A-375 [15]
  Activity: 9.77%
A-375 [16]
  Activity: 19.7%
A-375 [17]
  Activity: 1.95%
A-375 [18]
  viability at 3 µM: 32.8%
A-375 [19]
  Activity: 50.93%
A-375 [20]
  Activity: 29.07%
A-375 [21]
  Activity: 43.96 - 45.74%
A-375 [22]
  Activity: 39.32%
A-375 [23]
  Activity: 47.03%
A-375 [24]
  Activity: 51.08%
A-375 [25]
  Activity: 35.98%
A-375 [26]
  Activity: 35.56%
A-375 [27]
  Activity: 52.38%
A-375 [28]
  Activity: 10.06%
A-375 [29]
  Activity: Active
A-375 [30]
  Activity: Dose-dependent effect
A-375 [31]
  Activity: Tde
A-375 [32]
  Activity: Dose-dependent effect

From ChEMBL document CHEMBL4190403, “Design, synthesis, and biological evaluation of pyrazole derivatives containing acetamide bond as potential BRAFV600E inhibitors” (Bioorg Med Chem Lett, 2018)
